Laboratory results as given in the kinase profiling compilation of Christmann-Franck et al. (2016).
Blank lines part the entries; values can stand above or below the compound they belong to.

What was measured:
Experiment in all cases: KINOMEscan competition binding
Conditions in all cases: compound 10.0 µM
[1] = target: MARK1 (human) (UniProt Q9P0L2)
[2] = target: MLTK (human) (UniProt Q9NYL2)
[3] = target: TSSK1B (human) (UniProt Q9BXA7)
[4] = target: MUSK (human) (UniProt O15146)
[5] = target: MST4 (human) (UniProt Q9P289)
[6] = target: STK3 (human) (UniProt Q13188)
[7] = tested on: EGFR (human), P00533 [L861Q]
[8] = target: CAMK2B (human) (UniProt Q13554)
[9] = target: STK32C (human) (UniProt Q86UX6)
[10] = tested on: ABL1 (human), P00519 [H396P]
[11] = target: FES (human) (UniProt P07332)
[12] = tested on: ABL1 (human), P00519 [Q252H]
[13] = target: SRC (human) (UniProt P12931)
[14] = target: ROCK2 (human) (UniProt O75116)
[15] = target: IGF1R (human) (UniProt P08069)
[16] = target: LCK (human) (UniProt P06239)
[17] = target: MARK2 (human) (UniProt Q7KZI7)
[18] = target: ADCK3 (human) (UniProt Q8NI60)
[19] = target: STK10 (human) (UniProt O94804)
[20] = target: ULK3 (human) (UniProt Q6PHR2)
[21] = target: MAP2K1 (human) (UniProt Q02750)
[22] = target: YES1 (human) (UniProt P07947)
[23] = target: BLK (human) (UniProt P51451)
[24] = target: FGFR2 (human) (UniProt P21802)
[25] = target: NUAK1 (human) (UniProt O60285)
[26] = target: AKT3 (human) (UniProt Q9Y243)
[27] = target: PIK3CA (human) (UniProt P42336)
[28] = target: EPHA8 (human) (UniProt P29322)
[29] = target: CDK8 (human) (UniProt P49336)
[30] = target: NEK1 (human) (UniProt Q96PY6)
[31] = target: CDC2L2 (human) (UniProt Q9UQ88)
[32] = tested on: RET (human), P07949 [V804M]
[33] = target: AXL (human) (UniProt P30530)
[34] = target: CDK15 (human) (UniProt Q96Q40)
[35] = target: PRKAA2 (human) (UniProt P54646)
[36] = target: STK32B (human) (UniProt Q9NY57)
[37] = target: STK4 (human) (UniProt Q13043)
[38] = target: STK36 (human) (UniProt Q9NRP7)
[39] = target: DCLK2 (human) (UniProt Q8N568)
[40] = target: LTK (human) (UniProt P29376)
[41] = target: DCLK1 (human) (UniProt O15075)
[42] = target: MYLK2 (human) (UniProt Q9H1R3)
[43] = target: EPHB4 (human) (UniProt P54760)
Sequence of EPHB4 (human) (P54760 whole entry, looked up): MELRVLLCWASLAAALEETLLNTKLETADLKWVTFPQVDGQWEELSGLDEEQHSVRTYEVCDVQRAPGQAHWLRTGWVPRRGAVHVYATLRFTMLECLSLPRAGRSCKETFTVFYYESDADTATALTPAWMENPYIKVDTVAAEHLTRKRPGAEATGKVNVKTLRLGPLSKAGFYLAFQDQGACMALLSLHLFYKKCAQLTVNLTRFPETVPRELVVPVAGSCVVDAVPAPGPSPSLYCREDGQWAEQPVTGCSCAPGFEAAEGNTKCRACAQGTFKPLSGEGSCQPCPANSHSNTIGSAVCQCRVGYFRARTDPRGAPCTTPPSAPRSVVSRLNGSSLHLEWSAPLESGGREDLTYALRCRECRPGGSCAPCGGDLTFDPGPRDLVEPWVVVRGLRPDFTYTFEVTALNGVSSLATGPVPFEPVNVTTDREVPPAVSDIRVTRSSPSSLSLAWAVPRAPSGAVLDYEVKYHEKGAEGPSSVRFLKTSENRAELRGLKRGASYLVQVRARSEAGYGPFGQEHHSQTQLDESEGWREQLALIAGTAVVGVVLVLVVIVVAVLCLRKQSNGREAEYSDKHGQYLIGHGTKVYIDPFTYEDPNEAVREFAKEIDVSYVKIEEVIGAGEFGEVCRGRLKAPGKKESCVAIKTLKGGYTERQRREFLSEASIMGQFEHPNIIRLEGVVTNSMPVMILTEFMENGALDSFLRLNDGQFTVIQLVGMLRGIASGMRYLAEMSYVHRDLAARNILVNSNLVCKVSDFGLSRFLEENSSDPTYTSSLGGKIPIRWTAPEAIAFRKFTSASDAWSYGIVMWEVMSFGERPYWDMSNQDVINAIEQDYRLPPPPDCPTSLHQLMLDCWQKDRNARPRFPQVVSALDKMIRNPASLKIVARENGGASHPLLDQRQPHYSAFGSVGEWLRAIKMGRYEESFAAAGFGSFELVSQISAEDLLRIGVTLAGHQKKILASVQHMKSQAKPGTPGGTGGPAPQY

Sequence of AXL (human) (P30530 whole entry, looked up): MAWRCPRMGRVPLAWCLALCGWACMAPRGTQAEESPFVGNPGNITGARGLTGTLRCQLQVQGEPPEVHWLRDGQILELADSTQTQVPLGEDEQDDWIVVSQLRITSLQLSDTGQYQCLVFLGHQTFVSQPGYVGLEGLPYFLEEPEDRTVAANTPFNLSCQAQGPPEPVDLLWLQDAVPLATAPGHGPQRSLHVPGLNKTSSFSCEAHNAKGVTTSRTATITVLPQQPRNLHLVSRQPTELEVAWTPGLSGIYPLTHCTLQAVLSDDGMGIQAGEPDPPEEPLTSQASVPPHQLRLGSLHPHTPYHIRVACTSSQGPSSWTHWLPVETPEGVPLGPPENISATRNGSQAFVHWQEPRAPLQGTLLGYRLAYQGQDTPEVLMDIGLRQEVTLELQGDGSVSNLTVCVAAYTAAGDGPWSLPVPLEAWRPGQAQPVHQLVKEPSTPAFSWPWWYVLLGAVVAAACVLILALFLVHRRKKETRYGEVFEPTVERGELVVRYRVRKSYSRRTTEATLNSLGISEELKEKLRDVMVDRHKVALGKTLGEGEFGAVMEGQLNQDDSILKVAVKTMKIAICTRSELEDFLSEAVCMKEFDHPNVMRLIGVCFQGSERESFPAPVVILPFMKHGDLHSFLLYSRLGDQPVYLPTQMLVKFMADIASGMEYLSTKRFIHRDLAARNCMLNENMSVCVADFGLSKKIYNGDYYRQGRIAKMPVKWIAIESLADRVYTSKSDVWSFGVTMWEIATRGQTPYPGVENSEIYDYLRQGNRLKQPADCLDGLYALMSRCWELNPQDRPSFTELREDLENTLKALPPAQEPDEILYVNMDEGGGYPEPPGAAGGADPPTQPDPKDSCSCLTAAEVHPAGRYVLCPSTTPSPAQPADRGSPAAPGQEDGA
Sequence of EPHA8 (human) (P29322 whole entry, looked up): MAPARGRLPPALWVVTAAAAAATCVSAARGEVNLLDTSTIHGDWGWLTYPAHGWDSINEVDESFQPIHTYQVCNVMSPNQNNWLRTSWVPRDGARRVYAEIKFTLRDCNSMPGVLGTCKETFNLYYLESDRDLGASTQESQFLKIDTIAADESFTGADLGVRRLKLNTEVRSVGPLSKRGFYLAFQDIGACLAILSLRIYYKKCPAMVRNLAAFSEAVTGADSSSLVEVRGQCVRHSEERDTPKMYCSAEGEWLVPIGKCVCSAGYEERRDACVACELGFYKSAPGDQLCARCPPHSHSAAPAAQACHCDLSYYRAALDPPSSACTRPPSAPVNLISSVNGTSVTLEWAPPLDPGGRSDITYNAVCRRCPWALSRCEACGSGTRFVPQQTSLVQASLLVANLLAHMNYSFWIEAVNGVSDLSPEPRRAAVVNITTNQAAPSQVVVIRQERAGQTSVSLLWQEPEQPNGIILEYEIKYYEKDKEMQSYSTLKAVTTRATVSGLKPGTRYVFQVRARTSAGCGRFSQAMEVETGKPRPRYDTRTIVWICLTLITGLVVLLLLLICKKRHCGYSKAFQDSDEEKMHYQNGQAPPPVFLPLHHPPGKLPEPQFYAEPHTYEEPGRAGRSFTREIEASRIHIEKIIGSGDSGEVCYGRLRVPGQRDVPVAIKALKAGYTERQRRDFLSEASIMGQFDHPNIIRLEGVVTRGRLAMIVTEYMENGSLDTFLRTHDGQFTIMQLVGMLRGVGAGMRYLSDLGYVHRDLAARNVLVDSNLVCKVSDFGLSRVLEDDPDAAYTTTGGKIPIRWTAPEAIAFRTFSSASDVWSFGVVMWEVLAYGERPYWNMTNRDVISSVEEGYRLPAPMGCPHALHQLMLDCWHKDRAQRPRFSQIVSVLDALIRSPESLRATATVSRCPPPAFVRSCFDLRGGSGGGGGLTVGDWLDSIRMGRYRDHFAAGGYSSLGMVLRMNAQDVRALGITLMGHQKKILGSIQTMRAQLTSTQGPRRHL
Sequence of STK10 (human) (O94804 whole entry, looked up): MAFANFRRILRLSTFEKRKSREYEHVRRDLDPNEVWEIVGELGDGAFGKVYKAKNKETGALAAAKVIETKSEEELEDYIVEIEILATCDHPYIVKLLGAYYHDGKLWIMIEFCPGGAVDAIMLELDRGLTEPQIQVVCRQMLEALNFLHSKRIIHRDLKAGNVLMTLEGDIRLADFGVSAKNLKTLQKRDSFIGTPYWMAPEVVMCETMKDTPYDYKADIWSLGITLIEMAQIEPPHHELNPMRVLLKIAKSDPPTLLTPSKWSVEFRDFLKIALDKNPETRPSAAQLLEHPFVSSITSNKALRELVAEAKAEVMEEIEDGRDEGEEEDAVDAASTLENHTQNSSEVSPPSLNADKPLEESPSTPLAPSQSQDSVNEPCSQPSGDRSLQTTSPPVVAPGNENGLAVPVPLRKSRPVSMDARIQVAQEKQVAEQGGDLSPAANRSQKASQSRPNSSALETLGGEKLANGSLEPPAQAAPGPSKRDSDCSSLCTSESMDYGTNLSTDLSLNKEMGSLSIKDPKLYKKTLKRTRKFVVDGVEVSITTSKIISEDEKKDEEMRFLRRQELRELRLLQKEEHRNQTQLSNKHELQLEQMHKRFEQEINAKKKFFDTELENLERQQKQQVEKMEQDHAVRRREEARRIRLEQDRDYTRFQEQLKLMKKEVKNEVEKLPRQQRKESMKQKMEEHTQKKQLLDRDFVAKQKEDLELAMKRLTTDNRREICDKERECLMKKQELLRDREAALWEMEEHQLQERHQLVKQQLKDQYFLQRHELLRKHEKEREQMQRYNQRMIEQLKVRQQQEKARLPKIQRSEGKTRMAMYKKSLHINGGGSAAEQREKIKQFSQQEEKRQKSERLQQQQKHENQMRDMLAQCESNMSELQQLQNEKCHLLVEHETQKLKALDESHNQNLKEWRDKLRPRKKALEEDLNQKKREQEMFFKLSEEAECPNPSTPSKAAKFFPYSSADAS
Sequence of ULK3 (human) (Q6PHR2 whole entry, looked up): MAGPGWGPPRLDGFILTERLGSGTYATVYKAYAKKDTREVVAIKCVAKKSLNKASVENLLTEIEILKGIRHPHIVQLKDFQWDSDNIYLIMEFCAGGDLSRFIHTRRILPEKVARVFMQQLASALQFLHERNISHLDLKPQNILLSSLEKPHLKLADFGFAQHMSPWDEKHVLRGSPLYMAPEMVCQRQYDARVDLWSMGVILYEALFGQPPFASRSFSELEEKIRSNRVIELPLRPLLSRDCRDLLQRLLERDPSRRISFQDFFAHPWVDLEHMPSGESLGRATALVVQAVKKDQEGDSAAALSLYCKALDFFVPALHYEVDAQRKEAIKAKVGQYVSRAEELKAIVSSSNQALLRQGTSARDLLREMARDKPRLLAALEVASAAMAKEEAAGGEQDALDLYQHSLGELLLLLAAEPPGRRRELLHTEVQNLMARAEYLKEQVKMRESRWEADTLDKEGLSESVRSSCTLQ
Sequence of SRC (human) (P12931 whole entry, looked up): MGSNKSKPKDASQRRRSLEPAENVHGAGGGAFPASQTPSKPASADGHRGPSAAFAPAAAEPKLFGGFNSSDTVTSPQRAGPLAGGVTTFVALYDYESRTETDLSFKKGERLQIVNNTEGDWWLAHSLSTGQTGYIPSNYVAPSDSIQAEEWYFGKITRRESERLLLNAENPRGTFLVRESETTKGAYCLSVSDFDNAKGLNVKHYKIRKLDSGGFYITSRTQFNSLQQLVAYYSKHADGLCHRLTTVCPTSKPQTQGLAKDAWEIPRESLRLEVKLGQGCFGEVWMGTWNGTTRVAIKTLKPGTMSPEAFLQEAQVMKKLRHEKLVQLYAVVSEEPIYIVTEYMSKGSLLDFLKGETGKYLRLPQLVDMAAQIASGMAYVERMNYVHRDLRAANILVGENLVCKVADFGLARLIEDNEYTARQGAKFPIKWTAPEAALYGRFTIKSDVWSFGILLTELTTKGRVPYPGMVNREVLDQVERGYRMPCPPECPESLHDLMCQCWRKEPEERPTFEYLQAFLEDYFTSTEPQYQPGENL

kinase still bound, per cent of control [1]: 100% | kinase still bound, per cent of control [2]: 100% | kinase still bound, per cent of control [3]: 100% | kinase still bound, per cent of control [4]: 100% | kinase still bound, per cent of control [5]: 100% | kinase still bound, per cent of control [6]: 87% | kinase still bound, per cent of control [7]: 84% | kinase still bound, per cent of control [8]: 100% | kinase still bound, per cent of control [9]: 100% | kinase still bound, per cent of control [10]: 100% | kinase still bound, per cent of control [11]: 90% | kinase still bound, per cent of control [12]: 82% | kinase still bound, per cent of control [13]: 100% | kinase still bound, per cent of control [14]: 100% | kinase still bound, per cent of control [15]: 100% | kinase still bound, per cent of control [16]: 100% | kinase still bound, per cent of control [17]: 100% | kinase still bound, per cent of control [18]: 99% | kinase still bound, per cent of control [19]: 100% | kinase still bound, per cent of control [20]: 100% | kinase still bound, per cent of control [21]: 100% | kinase still bound, per cent of control [22]: 100% | kinase still bound, per cent of control [23]: 100% | kinase still bound, per cent of control [24]: 100% | kinase still bound, per cent of control [25]: 86% | kinase still bound, per cent of control [26]: 88% | kinase still bound, per cent of control [27]: 100% | kinase still bound, per cent of control [28]: 100% | kinase still bound, per cent of control [29]: 100% | kinase still bound, per cent of control [30]: 100% | kinase still bound, per cent of control [31]: 100% | kinase still bound, per cent of control [32]: 100% | kinase still bound, per cent of control [33]: 100% | kinase still bound, per cent of control [34]: 100% | kinase still bound, per cent of control [35]: 96% | kinase still bound, per cent of control [36]: 100% | kinase still bound, per cent of control [37]: 71% | kinase still bound, per cent of control [38]: 100% | kinase still bound, per cent of control [39]: 70% | kinase still bound, per cent of control [40]: 82% | kinase still bound, per cent of control [41]: 39% | kinase still bound, per cent of control [42]: 88% | kinase still bound, per cent of control [43]: 100%
SMILES: CN1C(=O)c2ccccc2N(C)c2nc(NS(=O)(=O)c3ccc(N)cc3)ncc21

kinase still bound, per cent of control [1]: 86% | kinase still bound, per cent of control [2]: 100% | kinase still bound, per cent of control [3]: 53% | kinase still bound, per cent of control [4]: 100% | kinase still bound, per cent of control [5]: 91% | kinase still bound, per cent of control [6]: 98% | kinase still bound, per cent of control [7]: 85% | kinase still bound, per cent of control [8]: 92% | kinase still bound, per cent of control [9]: 100% | kinase still bound, per cent of control [10]: 100% | kinase still bound, per cent of control [11]: 100% | kinase still bound, per cent of control [12]: 100% | kinase still bound, per cent of control [13]: 88% | kinase still bound, per cent of control [14]: 50% | kinase still bound, per cent of control [15]: 100% | kinase still bound, per cent of control [16]: 100% | kinase still bound, per cent of control [17]: 100% | kinase still bound, per cent of control [18]: 85% | kinase still bound, per cent of control [19]: 100% | kinase still bound, per cent of control [20]: 100% | kinase still bound, per cent of control [21]: 85% | kinase still bound, per cent of control [22]: 100% | kinase still bound, per cent of control [23]: 93% | kinase still bound, per cent of control [24]: 100% | kinase still bound, per cent of control [25]: 100% | kinase still bound, per cent of control [26]: 100% | kinase still bound, per cent of control [27]: 100% | kinase still bound, per cent of control [28]: 100% | kinase still bound, per cent of control [29]: 88% | kinase still bound, per cent of control [30]: 96% | kinase still bound, per cent of control [31]: 100% | kinase still bound, per cent of control [32]: 100% | kinase still bound, per cent of control [33]: 95% | kinase still bound, per cent of control [34]: 68% | kinase still bound, per cent of control [35]: 94% | kinase still bound, per cent of control [36]: 100% | kinase still bound, per cent of control [37]: 100% | kinase still bound, per cent of control [38]: 88% | kinase still bound, per cent of control [39]: 68% | kinase still bound, per cent of control [40]: 26% | kinase still bound, per cent of control [41]: 56% | kinase still bound, per cent of control [42]: 100% | kinase still bound, per cent of control [43]: 100%
SMILES: COc1cc(N2CCN(C)CC2)ccc1Nc1ncc2c(n1)N(C)c1ccccc1N(C)C2=O

kinase still bound, per cent of control [1]: 95% | kinase still bound, per cent of control [2]: 100% | kinase still bound, per cent of control [3]: 74% | kinase still bound, per cent of control [4]: 100% | kinase still bound, per cent of control [5]: 99% | kinase still bound, per cent of control [6]: 84% | kinase still bound, per cent of control [7]: 64% | kinase still bound, per cent of control [8]: 72% | kinase still bound, per cent of control [9]: 75% | kinase still bound, per cent of control [10]: 100% | kinase still bound, per cent of control [11]: 93% | kinase still bound, per cent of control [12]: 100% | kinase still bound, per cent of control [13]: 100% | kinase still bound, per cent of control [14]: 86% | kinase still bound, per cent of control [15]: 100% | kinase still bound, per cent of control [16]: 100% | kinase still bound, per cent of control [17]: 97% | kinase still bound, per cent of control [18]: 78% | kinase still bound, per cent of control [19]: 100% | kinase still bound, per cent of control [20]: 100% | kinase still bound, per cent of control [21]: 100% | kinase still bound, per cent of control [22]: 99% | kinase still bound, per cent of control [23]: 100% | kinase still bound, per cent of control [24]: 95% | kinase still bound, per cent of control [25]: 100% | kinase still bound, per cent of control [26]: 61% | kinase still bound, per cent of control [27]: 84% | kinase still bound, per cent of control [28]: 92% | kinase still bound, per cent of control [29]: 100% | kinase still bound, per cent of control [30]: 60% | kinase still bound, per cent of control [31]: 100% | kinase still bound, per cent of control [32]: 93% | kinase still bound, per cent of control [33]: 100% | kinase still bound, per cent of control [34]: 99% | kinase still bound, per cent of control [35]: 100% | kinase still bound, per cent of control [36]: 100% | kinase still bound, per cent of control [37]: 78% | kinase still bound, per cent of control [38]: 100% | kinase still bound, per cent of control [39]: 0.4% | kinase still bound, per cent of control [40]: 100% | kinase still bound, per cent of control [41]: 4.5% | kinase still bound, per cent of control [42]: 98% | kinase still bound, per cent of control [43]: 100%
SMILES: COc1cc(N2CCC(O)CC2)ccc1Nc1ncc2c(n1)N1CCc3cccc(c31)C(=O)N2C
